Assay results published in article PMC11758266, “Lipid-Modulated, Graduated Inhibition of N-Glycosylation Pathway Priming Suggests Wide Tolerance of ER Proteostasis to Stress” (ACS Central Science, 2024).

Tested on: HEK293 cells
Assay: HEK-CellCount readout (stained nuclei of live cells, internal cytotoxicity measure)
Type: cell-based, human
Procedure: Here, the nuclear localization of the transcription factor ATF4 (which leads to subsequent expression of CHOP and cell death) was used as a phenotypic marker of ER stress (Figure 3A). Use of multi(384)-well plate format allowed wild-type HEK cells to be treated with analogues over a titrating concentration range of 0.5 nM to […] for 6 h in a quantitative manner (Figure 3C). After fixation with paraformaldehyde, high-content cellular fluorescence microscopy imaging was used to both determine the site and quantify the location of ATF4[32] (Figure 3B,C). […] In this way, confocal fluorescence microscopy at excitation wavelengths of 405 and 488 nm produced, as a direct primary readout, the intensity of ATF4 located in the nucleus as well as the ratio of ATF4 located between the nucleus (colocalized with Hoechst) and cytoplasm (see Figure 3B,C for representative images and the Supporting Information for channel-by-channel images). Concurrent readout of the number of stained nuclei (Hoechst nuclei stain) in live cells was also used as an internal cytotoxicity measure. This high-content method allowed detailed quantitative cellular dose responses to be determined with precision (Figure 3D). […]
Figure 3 High-content phenotypic screen for putative ER stress inducers. […] Plates were imaged using an OPERA-Phenix high-content imaging platform with fluorescence excitation at 405 and 488 nm. […]

tunicamycin [reference compound]
cell death (in words): causing cell death | EC50 (6 h, live cell nuclei count, read-out: EC50, cell death): ~10 µM
